Converted amounts (≈) assume the structure as drawn.

Experimental findings from US8796224B2, “Methods for preparing purified lipopeptides” (priority 2000, dated 2014) are described below.

Data set [1] can be described thus: Hygroscopicity of the amorphous preparation. The data set is classed as physicochemical. The settings on record: amorphous daptomycin preparation.
The subject of a further data set is susceptible strains. Put plainly: Minimum inhibitory concentration (MIC) in in vitro experiments. The class given is cell-based, gram-positive organisms. The settings on record: against susceptible strains, compared with vancomycin, 'typically'.

On to `CCCCCCCCCCC(=O)NC(Cc1c[nH]c2ccccc12)C(=O)NC(CC(N)=O)C(=O)NC(CC(=O)O)C(=O)NC1C(=O)NCC(=O)NC(CCCN)C(=O)NC(CC(=O)O)C(=O)NC(C)C(=O)NC(CC(=O)O)C(=O)NCC(=O)NC(CO)C(=O)NC(C(C)CC(=O)O)C(=O)NC(CC(=O)c2ccccc2N)C(=O)OC1C` (centres unmarked) [CB-131547], for which the solubility (usually the concentration that dissolves in the medium under given conditions) in the data set “physchem” (solubility in normal saline) was approximately 80 mg/mL (≈ 48.9 mM).

On to `CCCCCCCCCC(=O)N[C@@H](Cc1c[nH]c2ccccc12)C(=O)N[C@H](CC(N)=O)C(=O)N[C@@H](CC(=O)O)C(=O)N[C@@H]1C(=O)NCC(=O)N[C@@H](CCCN)C(=O)N[C@@H](CC(=O)O)C(=O)N[C@H](C)C(=O)N[C@@H](CC(=O)O)C(=O)NCC(=O)N[C@H](CO)C(=O)N[C@@H]([C@H](C)CC(=O)O)C(=O)N[C@@H](CC(=O)c2ccccc2N)C(=O)O[C@@H]1C` [daptomycin], for which, in data set [1], the hygroscopicity result is given as “hygroscopic”. Also, the solubility in “physchem” (solubility in ethanol) was 2.8 mg/mL (≈ 1.73 mM); in the data set “physchem” (solubility in water), more than 1000 mg/mL. Besides, the “MIC value, fold lower than that of vancomycin” value in the data set on susceptible strains is on record as 4 fold.
